Results taken from US4103025A, “Novel terpenes” (Inverni Della Beffa S.p.A., priority 1974, dated 1978).

Experiments:
[1] = system: Gastric ulcer induced by Shay's method; assay: Anti-ulcer activity - gastric ulcer in rats induced by Shay's method; format: in vivo; conditions: for Diminution of the ulcer index compared with the controls: 200 mg/kg orally five times; for Number of ulcers of class I / Number of ulcers of class II / Number of ulcers of class III / Number of ulcers of class IV / Number of ulcers of class V: 13 animals; for Percentage ulcer variation in relation to controls: Table 1; for Ulcer Index: controls 75; for Product of the number of ulcers and the numerical value attributed to the class, class I / Product of the number of ulcers and the numerical value attributed to the class, class II / Product of the number of ulcers and the numerical value attributed to the class, class III / Product of the number of ulcers and the numerical value attributed to the class, class IV / Product of the number of ulcers and the numerical value attributed to the class, class V: in parentheses
Procedure: Anti-ulcer activity - Gastric Ulcer in the rats induced by Shay's method
The anti-ulcer activity of sericic acid and sericoside was determined by administering the compounds to rats in which gastric ulcers were induced by Shay's method. The compounds were administered at the dose of 200 mg./kg. orally five times, at 42, 30, 25 and 6 hours before tying of the pylorus and immediately after the operation and as shown in Table 1 diminished the ulcer index by 48 and 45 per cent respectively, compared with the controls.
^(1) Doses administered orally 5 times, 42, 30, 25 and 6 hours prior
to and immediately after the tying of the pylorus.
^(2) In parentheses the product of the number of ulcers and the
numerical value attributed to the individual classes according to the
individual classes according to the evaluation criterion of T. O.
Keyrilainen and M. K. Paasonen (Acta Pharmacol. et. Toxicol. 13, 22, 1957

[2] = system: Ultra-violet ray erythema; assay: Activity against ultra-violet ray erythema in guinea pigs (method of Winder et al.); format: in vivo, male albino guinea pigs; conditions: for Erythema Score, 2 h / Erythema Score, 4 h / Erythema Score, 6 h / Erythema Score, 8 h / Erythema Score, 22 h: 5% gel (200 mg) one hour prior to irradiation; for Erythema Score, 2 h: 0 = no erythema, 0.5 = moderate reddening, 1 = marked reddening, 2 = obvious erythema, controls 1.15 ± 0.17; for Erythema Score, 4 h: controls 2.40 ± 0.30; for Erythema Score, 6 h: controls 2.55 ± 0.34; for Erythema Score, 8 h: controls 2.35 ± 0.18; for Erythema Score, 22 h: controls 1.05 ± 0.23; for Percentage inhibition of erythema compared with the controls, 2 h / Percentage inhibition of erythema compared with the controls, 4 h / Percentage inhibition of erythema compared with the controls, 6 h / Percentage inhibition of erythema compared with the controls, 8 h / Percentage inhibition of erythema compared with the controls, 22 h: 5% gel (200 mg), in parentheses
Procedure: Activity Against Ultra-Violet Ray Erythema
Ultra-violet ray erythema in guinea pigs was effected in accordance with the method of Winder et al. (Arch. Int. Pharmacodyn, 106, 261, 1968).
Sericoside and sericic acid were applied to the depilated skin of male albino guinea pigs (average weight 300 - 400 g) in the form of a 5% gel (using 200 mg. thereof) one hour prior to irradiation. The animals were depilated 18 hours prior to the irradiation and irradiated for 3 minutes with a 500 W. mercury vapor lamp at a distance of 18 cms.

[3] = system: Carragenin-induced oedema; assay: Anti-inflammatory activity against carragenin-induced oedema in rats, intraperitoneal administration; format: in vivo; conditions: for Volume of the oedema (Average ± S.D.): maximum volume after 3 hours
Procedure: (§1) Anti-inflammatory Activity Against Carragenin-induced Oedema in Rats
(§2) The anti-inflammatory activities of sericoside and sericic acid were determined by measuring the extent to which the oedema caused by sub-plantar administration of carragenin to rats could be inhibited by prior oral and intraperitoneal administration of the substances.
(1) Administration endoperitoneally 30 minutes prior to the injection of
(2) Maximum volume measured after 3 hours.

Experimental wounds = assay: Cicatrizing activity upon experimental wounds in rats (method of Morton & Malone); format: in vivo; conditions: for Healing activity compared with the controls: especially in the first days of treatment; for Percentage remargination (Average ± S.D.), Day I / Percentage remargination (Average ± S.D.), Day II / Percentage remargination (Average ± S.D.), Day III / Percentage remargination (Average ± S.D.), Day V / Percentage remargination (Average ± S.D.), Day VI: topical 10% suspension in 2% CMC, 0.1 ml/rat/day; for Percentage remargination (Average ± S.D.), Day I: control 5.2 ± 1.1; for Percentage remargination (Average ± S.D.), Day II: control 12.8 ± 1.5; for Percentage remargination (Average ± S.D.), Day III: control 21.9 ± 3.1; for Percentage remargination (Average ± S.D.), Day V: control 39.63 ± 2.3; for Percentage remargination (Average ± S.D.), Day VI: control 57.4 ± 2.1
Procedure: Cicatrizing Activity Upon Experimental Wounds in Rats
The cicatrizing activity of sericic acid and sericoside upon experimental wounds was determined on rats in accordance with the method of Morton & Malone (Arch. Int. Pharmacodyn. Ther. 196, 117, 1972).
The treatment of the wounds was effected with a 10% suspension of the active principles in water containing 2% carboxymethyl cellulose (CMC). The suspensions were used in doses of 0.1 ml. for each application, one treatment being effected per day.
Note: Topical treatment effected on each of the days on which measurement
were taken (I, II, III, V, and VI).

[4] = system: Carragenin-induced oedema; assay: Anti-inflammatory activity against carragenin-induced oedema in rats, oral administration; format: in vivo; conditions: 200 mg/kg orally for 3 days; for Percentage inhibition of the oedema: 3 hours after carragenin; for Volume of oedema (Average ± S.D.): maximum volume 3 hours after carragenin, controls 0.30 ± 0.005
Procedure: as §1, §2
^(1) Doses administered orally for 3 days; on the third day the
administration was effected two hours before the subplantar injection of
^(2) Maximum volume of the oedema measured 3 hours after the
subplantar injection of carragenin.

[5] = LD50 in mice (intraperitoneal); conditions: mouse, in vivo, ip, intraperitoneal administration
From the text: The LD50 in mice (as determined with intraperitoneal administration) for sericic acid and sericoside was as follows: […]

[6] = Relative solubility in chlorinated hydrocarbon and aqueous solvents; format: physicochemical; conditions: chlorinated hydrocarbon solvents versus water/aqueous solvents
[7] = 50 mg/kg endoperitoneally 30 minutes prior to carragenin
[8] = 50 mg/kg endoperitoneally 30 minutes prior to carragenin, controls 0.31 ± 0.006
[9] = 100 mg/kg endoperitoneally 30 minutes prior to carragenin

With `CC1(C)CC[C@]2(C(=O)O)CC[C@]3(C)C(=CC[C@@H]4[C@@]5(C)C[C@@H](O)[C@H](O)[C@](C)(CO)[C@@H]5CC[C@]43C)[C@@H]2[C@@H]1O` the “Diminution of the ulcer index compared with the controls” value [1] was 48 per cent, the “Number of ulcers of class I” value ([1]; 200 mg/kg orally, 5 times) was 279 and the “Number of ulcers of class II” value ([1]; 200 mg/kg orally, 5 times) was 12. The “Number of ulcers of class III” value ([1]; 200 mg/kg orally, 5 times) was 3, the “Number of ulcers of class IV” value ([1]; 200 mg/kg orally, 5 times) was 2 and the “Number of ulcers of class V” value ([1]; 200 mg/kg orally, 5 times) was 9. For the same molecule, the “Percentage ulcer variation in relation to controls” value ([1]; 200 mg/kg orally, 5 times) was -45%, the “Ulcer Index” value ([1]; 200 mg/kg orally, 5 times) was 45 and the “Product of the number of ulcers and the numerical value attributed to the class, class I” value ([1]; 200 mg/kg orally, 5 times) was 279. The “Product of the number of ulcers and the numerical value attributed to the class, class II” value ([1]; 200 mg/kg orally, 5 times) was 60, the “Product of the number of ulcers and the numerical value attributed to the class, class III” value ([1]; 200 mg/kg orally, 5 times) was 30 and the “Product of the number of ulcers and the numerical value attributed to the class, class IV” value ([1]; 200 mg/kg orally, 5 times) was 40. For the same molecule, the “Product of the number of ulcers and the numerical value attributed to the class, class V” value ([1]; 200 mg/kg orally, 5 times) was 180, the “Erythema Score, 2 h” value [2] was 0.95 ± 0.12 and the “Erythema Score, 4 h” value [2] was 1.80 ± 0.21. The “Erythema Score, 6 h” value [2] was 2.05 ± 0.22, the “Erythema Score, 8 h” value [2] was 1.35 ± 0.18 and the “Erythema Score, 22 h” value [2] was 0.60 ± 0.10. For the same molecule, the “Percentage inhibition of erythema compared with the controls, 2 h” value [2] was 17.4%, the “Percentage inhibition of erythema compared with the controls, 4 h” value [2] was 25% and the “Percentage inhibition of erythema compared with the controls, 6 h” value [2] was 19.6%. The “Percentage inhibition of erythema compared with the controls, 8 h” value [2] was 42.5%, the “Percentage inhibition of erythema compared with the controls, 22 h” value [2] was 42.8% and the “Percentage inhibition of the oedema” value [3, 7] was 25%. For the same molecule, the “Volume of the oedema (Average ± S.D.)” value [3, 8] was 0.23 ± 0.008 mL, the “Percentage inhibition of the oedema” value [3, 9] was 64% and the “Volume of the oedema (Average ± S.D.)” value ([3]; 100 mg/kg endoperitoneally 30 minutes prior to carragenin, controls 0.31 ± 0.010) was 0.11 ± 0.006 mL. For the same molecule, the “Healing activity compared with the controls” value (Experimental wounds) was “significant healing activity”, the “Percentage remargination (Average ± S.D.), Day I” value (Experimental wounds) was 10.4 ± 1.3% and the “Percentage remargination (Average ± S.D.), Day II” value (Experimental wounds) was 23.7 ± 2.3%. The “Percentage remargination (Average ± S.D.), Day III” value (Experimental wounds) was 36.9 ± 2.7%, the “Percentage remargination (Average ± S.D.), Day V” value (Experimental wounds) was 48.00 ± 1.5% and the “Percentage remargination (Average ± S.D.), Day VI” value (Experimental wounds) was 59.0 ± 2.2%. For the same molecule, the “Percentage inhibition of the oedema” value [4] was 23%, the “Volume of oedema (Average ± S.D.)” value [4] was 0.23 ± 0.009 mL and the LD50 [5] was greater than 1000 mg/kg. For the same molecule, the Relative solubility [6] was “generally more soluble in chlorinated hydrocarbon solvents than in water”.

In the case of `CC1(C)CC[C@]2(C(=O)OC3O[C@H](CO)[C@@H](O)[C@H](O)[C@H]3O)CC[C@]3(C)C(=CC[C@@H]4[C@@]5(C)C[C@@H](O)[C@H](O)[C@](C)(CO)[C@@H]5CC[C@]43C)[C@@H]2[C@@H]1O` (some centres unmarked), the “Diminution of the ulcer index compared with the controls” value [1] is reported as 45 per cent, the “Number of non-ulcerated stomachs (per cent)” value ([1]; 200 mg/kg orally, 5 times) is reported as 7.6 per cent and the “Number of ulcers of class I” value ([1]; 200 mg/kg orally, 5 times) is reported as 369. The “Number of ulcers of class II” value ([1]; 200 mg/kg orally, 5 times) was 15, the “Number of ulcers of class III” value ([1]; 200 mg/kg orally, 5 times) was 1 and the “Number of ulcers of class IV” value ([1]; 200 mg/kg orally, 5 times) was 0. For the same molecule, the “Number of ulcers of class V” value ([1]; 200 mg/kg orally, 5 times) was 3, the “Percentage ulcer variation in relation to controls” value ([1]; 200 mg/kg orally, 5 times) was -48% and the “Ulcer Index” value ([1]; 200 mg/kg orally, 5 times) was 39.5. For the same molecule, the “Product of the number of ulcers and the numerical value attributed to the class, class I” value ([1]; 200 mg/kg orally, 5 times) was 369, the “Product of the number of ulcers and the numerical value attributed to the class, class II” value ([1]; 200 mg/kg orally, 5 times) was 75 and the “Product of the number of ulcers and the numerical value attributed to the class, class III” value ([1]; 200 mg/kg orally, 5 times) was 10. The “Product of the number of ulcers and the numerical value attributed to the class, class IV” value ([1]; 200 mg/kg orally, 5 times) was 0, the “Product of the number of ulcers and the numerical value attributed to the class, class V” value ([1]; 200 mg/kg orally, 5 times) was 60 and the “Erythema Score, 2 h” value [2] was 0.75 ± 0.17. For the same molecule, the “Erythema Score, 4 h” value [2] was 1.70 ± 0.23, the “Erythema Score, 6 h” value [2] was 1.95 ± 0.22 and the “Erythema Score, 8 h” value [2] was 1.30 ± 0.25. The “Erythema Score, 22 h” value [2] was 0.70 ± 0.15, the “Percentage inhibition of erythema compared with the controls, 2 h” value [2] was 34.8% and the “Percentage inhibition of erythema compared with the controls, 4 h” value [2] was 29.2%. For the same molecule, the “Percentage inhibition of erythema compared with the controls, 6 h” value [2] was 23.5%, the “Percentage inhibition of erythema compared with the controls, 8 h” value [2] was 44.7% and the “Percentage inhibition of erythema compared with the controls, 22 h” value [2] was 33.3%. For the same molecule, the “Percentage inhibition of the oedema” value [3, 7] was 35%, the “Volume of the oedema (Average ± S.D.)” value [3, 8] was 0.20 ± 0.005 mL and the “Percentage inhibition of the oedema” value [3, 9] was 67%. For the same molecule, the “Healing activity compared with the controls” value (Experimental wounds) was “significant healing activity”, the “Percentage remargination (Average ± S.D.), Day I” value (Experimental wounds) was 13.9 ± 1.4% and the “Percentage remargination (Average ± S.D.), Day II” value (Experimental wounds) was 23.7 ± 1.5%. For the same molecule, the “Percentage remargination (Average ± S.D.), Day III” value (Experimental wounds) was 36.8 ± 2.0%, the “Percentage remargination (Average ± S.D.), Day V” value (Experimental wounds) was 53.30 ± 2.8% and the “Percentage remargination (Average ± S.D.), Day VI” value (Experimental wounds) was 68.2 ± 2.1%. For the same molecule, the “Percentage inhibition of the oedema” value [4] was 26%, the “Volume of oedema (Average ± S.D.)” value [4] was 0.22 ± 0.010 mL and the LD50 [5] was greater than 1000 mg/kg. The Relative solubility [6] was “generally more soluble in aqueous solvents than chlorinated hydrocarbons”.
